“And” between values parts separate entries of the source, which are not always exact repeats. Equal values may be shown once.
How the values were obtained:
[1] = target: T1, Human recombinant Casein Kinase 1 epsilon (CK1ε) (Homo sapiens, UniProt P49674); assay: CK-1ε Kinase-Glo assay; assay type: biochemical; details: for IC50: human recombinant enzyme, mean of two independent experiments, read-out: IC50 CK1ε (µM ± SD)
T1 construct: purchased Millipore (Millipore Iberica S.A.U.)
Experimental: The Kinase-Glo Kit was purchased from Promega (Promega Biotech Ibérica, SL) and was used to screen compounds for activity against CK-1δ and CK1ε. Human recombinant Casein Kinase 1 delta and epsilon was purchased from Millipore (Millipore Iberica S.A.U.). Casein solution from bovine milk, 5%, was purchased from Sigma-Aldrich (St. Louis, MO, USA). ATP and all other reagents were from Sigma-Aldrich (St. Louis, MO, USA). Kinase-Glo assays were performed in assay buffer using black 96-well plates. In a typical assay, 10 µL of test compound (dissolved in DMSO at 1 mM concentration and diluted in advance in assay buffer to the desired concentration) 10 µL (16 ng) of enzyme were added to each well followed by 20 µL of assay buffer containing 0.1% casein as substrate and 4 µM ATP. […] After 60 min incubation at 30 °C the enzymatic reaction was stopped with 40 µL of Kinase-Glo reagent. Glow-type luminescence was recorded after 10 min using a FLUOstar Optima (BMG Labtechnologies GmbH, Offenburg, Germany) multimode reader. The activity is proportional to the difference of the total and consumed ATP. The inhibitory activities were calculated on the basis of maximal activities measured in the absence of inhibitor. […] Each value is the mean of two independent experiments. […]

[2] = target: T2, Human recombinant Casein Kinase 1 delta (CK1δ) (Homo sapiens, UniProt P48730); assay: CK-1δ Kinase-Glo assay; assay type: biochemical; details: for IC50: human recombinant enzyme, mean of two independent experiments, read-out: IC50 CK1δ (µM ± SD); for CK1δ inhibition (value in parentheses): screening at fixed concentration of 10 µM
T2 construct: purchased Millipore (Millipore Iberica S.A.U.)
Experimental: The Kinase-Glo Kit was purchased from Promega (Promega Biotech Ibérica, SL) and was used to screen compounds for activity against CK-1δ and CK1ε. Human recombinant Casein Kinase 1 delta and epsilon was purchased from Millipore (Millipore Iberica S.A.U.). Casein solution from bovine milk, 5%, was purchased from Sigma-Aldrich (St. Louis, MO, USA). ATP and all other reagents were from Sigma-Aldrich (St. Louis, MO, USA). Kinase-Glo assays were performed in assay buffer using black 96-well plates. In a typical assay, 10 µL of test compound (dissolved in DMSO at 1 mM concentration and diluted in advance in assay buffer to the desired concentration) 10 µL (16 ng) of enzyme were added to each well followed by 20 µL of assay buffer containing 0.1% casein as substrate and 4 µM ATP. […] After 60 min incubation at 30 °C the enzymatic reaction was stopped with 40 µL of Kinase-Glo reagent. Glow-type luminescence was recorded after 10 min using a FLUOstar Optima (BMG Labtechnologies GmbH, Offenburg, Germany) multimode reader. The activity is proportional to the difference of the total and consumed ATP. The inhibitory activities were calculated on the basis of maximal activities measured in the absence of inhibitor. […] Each value is the mean of two independent experiments.
Compounds were screened against human recombinant enzyme CK1δ at a fixed concentration of 10 µM.

[3] = target: amyloid-beta binding alcohol dehydrogenase (ABAD); design: method as in PMID 27287370; details: cited from earlier work
PAMPA-BBB assay = details: for Pe (10^−6 cm s^−1): 2.5 h
Experimental: Prediction of the BBB penetration was evaluated using a parallel artificial membrane permeability assay (PAMPA) using the setup according to Di et al.[12]. Ten commercial drugs, phosphate buffer saline solution at pH 7.4 (PBS), Ethanol and dodecane were purchased from Sigma, Acros organics, Merck, Aldrich and Fluka. […] Filter PDVF membrane units (diameter 30 mm, pore size 0.45 µm) from Symta were used to filtered the samples. A 96-well plate UV reader (Thermo Scientific, Multiskan spectrum) was used for the UV measurements. […] About 100 µL of this compound stock solution was taken and […] of EtOH and 3500 µL of PBS pH = 7.4 buffer were added to reach 30% of EtOH concentration in the experiment. These solutions were filtered. The acceptor 96-well microplate was filled with 180 µL of PBS/EtOH (70/30). The donor 96-well plate was coated with 4 µL of porcine brain lipid in dodecane (20 mg mL^−1) and after 5 min, 180 µL of each compound solution was added. About 1–2 mg of every compound to be determined their ability to pass the brain barrier were dissolved in 1500 µL of EtOH and 3500 µL of PBS pH = 7.4 buffer, filtered and then added to the donor 96-well plate. Then the donor plate was carefully put on the acceptor plate to form a “sandwich”, which was left undisturbed for 2 h and 30 min at 25 °C. During this time the compounds diffused from the donor plate through the brain lipid membrane into the acceptor plate. After incubation, the donor plate was removed. UV plate reader determined the concentration of compounds and commercial drugs in the acceptor and the donor wells. Every sample was analysed at three to five wavelengths, in three wells and in two independent runs. […] 10 quality control compounds (previously mentioned) of known BBB permeability were included in each experiment to validate the analysis set.
Parallel Artificial Membrane Permeability Assay (PAMPA) is technique developed to predict passive permeability through biological membranes. […] An assay validation was made comparing the reported permeability values of commercial drugs with the experimental data obtained employing this methodology.

CK1ε = system: CK1ε; design: method as in PMID 20577972; details: standards; cited from earlier work
CK1δ = system: CK1δ; design: method as in PMID 20577972; details: standards; cited from earlier work

T1 sequence (P49674 whole entry): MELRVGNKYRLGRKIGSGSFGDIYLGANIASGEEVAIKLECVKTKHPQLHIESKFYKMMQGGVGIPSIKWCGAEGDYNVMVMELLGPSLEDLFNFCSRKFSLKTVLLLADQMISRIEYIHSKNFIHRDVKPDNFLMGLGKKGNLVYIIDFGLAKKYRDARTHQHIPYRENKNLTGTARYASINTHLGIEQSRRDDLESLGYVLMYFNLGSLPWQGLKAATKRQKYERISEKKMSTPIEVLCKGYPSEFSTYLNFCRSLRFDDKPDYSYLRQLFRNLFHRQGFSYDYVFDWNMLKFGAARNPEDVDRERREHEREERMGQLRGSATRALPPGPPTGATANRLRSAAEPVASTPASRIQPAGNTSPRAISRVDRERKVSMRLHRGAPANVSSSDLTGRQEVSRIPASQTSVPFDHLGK
T2 sequence (P48730 whole entry): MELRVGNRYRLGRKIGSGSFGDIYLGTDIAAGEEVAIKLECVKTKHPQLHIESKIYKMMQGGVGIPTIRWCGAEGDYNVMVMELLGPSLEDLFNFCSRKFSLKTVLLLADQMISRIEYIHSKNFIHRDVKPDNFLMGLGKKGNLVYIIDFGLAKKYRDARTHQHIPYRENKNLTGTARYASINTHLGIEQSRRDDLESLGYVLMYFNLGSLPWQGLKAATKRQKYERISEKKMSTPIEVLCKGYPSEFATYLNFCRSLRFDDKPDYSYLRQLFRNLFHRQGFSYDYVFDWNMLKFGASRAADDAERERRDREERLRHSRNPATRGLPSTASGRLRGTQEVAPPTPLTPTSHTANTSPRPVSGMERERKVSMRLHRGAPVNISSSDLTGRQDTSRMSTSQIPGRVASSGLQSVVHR

| SMILES | IC50 [1] | SI (Selectivity index = IC50CK1ε/IC50CK1δ) [2] | IC50 [2] | also measured |
| --- | --- | --- | --- | --- |
| O=C(Nc1nc2ccc(F)cc2s1)Nc1ccccc1O [Compound K688] | 7.33 ± 0.29 µM | 8.1 | 0.9 ± 0.14 µM | – |
| CC(=O)Nc1ccc(NC(=O)Nc2nc3ccc(F)cc3s2)cc1 [Compound K708] | – | – | > 10 µM | CK1δ inhibition (value in parentheses) [2]: 39% |
| O=C(Nc1ccc(O)c(Cl)c1)Nc1nc2ccc(Cl)cc2s1 [Compound K691] | 3.01 ± 0.33 µM | 4.1 | 0.73 ± 0.21 µM | IC50 [3]: 1670 nM; ability to cross the BBB (in words) (PAMPA-BBB assay): able to cross the BBB by passive permeation; Pe (10^−6 cm s^−1) (PAMPA-BBB assay; pig, pH 7.4): 14 ± 2 10^−6 cm s^−1 |
| COc1ccc(NC(=O)Nc2nc3ccc(F)cc3s2)cc1 [Compound K694] | – | – | 7.38 ± 0.93 µM | – |
| O=C(Nc1ccc(Oc2ccccc2)cc1)Nc1nc2ccc(Cl)cc2s1 [Compound K701] | – | – | > 10 µM | CK1δ inhibition (value in parentheses) [2]: 37% |
| COC(=O)c1ccc(NC(=O)Nc2nc3ccc(Cl)cc3s2)cc1 [Compound K707] | – | – | 8.73 ± 0.71 µM | – |
| COc1cc(OC)c(C=C2C(O)=Nc3ccccc32)c(OC)c1 [IC261] | – | – | – | IC50 (CK1ε): 1000 nM; IC50 (CK1δ): 1000 nM |
| O=C(Nc1ccc(O)c(Cl)c1)Nc1nc2ccc(F)cc2s1 [Compound K690] | 10.1 ± 0.74 µM | 12.0 | 0.84 ± 0.16 µM | IC50 [3]: 1890 nM; ability to cross the BBB (in words) (PAMPA-BBB assay): able to cross the BBB by passive permeation; Pe (10^−6 cm s^−1) (PAMPA-BBB assay; pig, pH 7.4): 13.2 ± 1.4 10^−6 cm s^−1 |
| COc1ccc(NC(=O)Nc2nc3ccc(F)cc3s2)cc1C(=O)O [Compound K698] | – | – | 3.37 ± 0.4 µM | – |
| CN(C)CCCN1c2ccccc2Sc2ccccc21 [promazine, reference compound] | – | – | – | Papp at 2.5 h (PAMPA-BBB assay; pig, pH 7.4): 8.1 ± 0.1 ×10⁻⁶ cm/s |
| O=C(Nc1ccc(Oc2ccccc2)cc1)Nc1nc2ccc(F)cc2s1 [Compound K700] | – | – | > 10 µM | CK1δ inhibition (value in parentheses) [2]: 36% |
| CCOC(=O)c1ccc(NC(=O)Nc2nc3ccc(Cl)cc3s2)cc1 [Compound K705] | – | – | > 10 µM | CK1δ inhibition (value in parentheses) [2]: 45% |
| COc1ccc(NC(=O)Nc2nc3ccc(Cl)cc3s2)cc1C(=O)O [Compound K699] | 3.49 ± 0.09 µM | 7.6 | < 0.5 µM and 0.46 µM | – |
| O=C(Nc1ccc(C(=O)O)cc1)Nc1nc2ccc(F)cc2s1 [Compound K702] | – | – | 2.99 ± 0.36 µM | – |
| O=C(Nc1ccc(O)c(C(=O)O)c1)Nc1nc2ccc(Cl)cc2s1 [Compound K693] | ~2 µM and 2.29 µM | 5.7 | < 0.5 µM and 0.4 µM | – |
| O=C(Nc1ccc(O)cc1)Nc1nc2ccc(F)cc2s1 [Compound K684] | – | – | 1.37 ± 0.23 µM | – |

| SMILES | IC50 [1] | SI (Selectivity index = IC50CK1ε/IC50CK1δ) [2] | IC50 [2] | also measured |
| --- | --- | --- | --- | --- |
| O=C(Nc1ccc(O)cc1)Nc1nc2ccc(Cl)cc2s1 [Compound K685] | 9.01 ± 0.37 µM | 15.3 | 0.59 ± 0.06 µM | – |
| O=C(Nc1cccc(O)c1)Nc1nc2ccc(Cl)cc2s1 [Compound K687] | ~2 µM and 1.92 µM | 12.0 | – | – |
| COc1ccc(NC(=O)Nc2nc3ccc(Cl)cc3s2)cc1 [Compound K695] | – | – | 8.87 ± 0.73 µM | – |
| CC(=O)Nc1ccc(NC(=O)Nc2nc3ccc(Cl)cc3s2)cc1 [Compound K709] | – | – | 1.32 ± 0.15 µM | – |
| O=C(Nc1nc2ccc(Cl)cc2s1)Nc1ccccc1O [Compound K689] | 3.91 ± 0.4 µM | 8.1 | < 0.5 µM and 0.48 µM | – |
| O=C(Nc1ccc(C(=O)O)cc1)Nc1nc2ccc(Cl)cc2s1 [Compound K703] | 3.69 ± 0.41 µM | 12.3 | < 0.5 µM and 0.3 µM | – |
| CCOC(=O)c1ccc(NC(=O)Nc2nc3ccc(F)cc3s2)cc1 [Compound K704] | – | – | > 10 µM | CK1δ inhibition (value in parentheses) [2]: 31% |
| COC(=O)c1cc(NC(=O)Nc2nc3ccc(Cl)cc3s2)ccc1O [Compound K711] | – | – | 9.98 ± 0.96 µM | – |
| COC(=O)c1cc(NC(=O)Nc2nc3ccc(F)cc3s2)ccc1O [Compound K710] | – | – | > 10 µM | CK1δ inhibition (value in parentheses) [2]: 24% |
| O=C(Nc1ccc(O)c(C(=O)O)c1)Nc1nc2ccc(F)cc2s1 [Compound K692] | 8.41 ± 0.71 µM | 9.2 | 0.91 ± 0.31 µM | – |
| O=C(Nc1cccc(O)c1)Nc1nc2ccc(F)cc2s1 [Compound K686] | 4.02 ± 0.16 µM | 4.7 | 0.86 ± 0.1 µM | – |
| COC(=O)c1ccc(NC(=O)Nc2nc3ccc(F)cc3s2)cc1 [Compound K706] | – | – | > 10 µM | CK1δ inhibition (value in parentheses) [2]: 48% |
| COc1ccc(NC(=O)Nc2nc3ccc(F)cc3s2)cc1OC [Compound K696] | – | – | > 10 µM | CK1δ inhibition (value in parentheses) [2]: 23% |
| COc1ccc(NC(=O)Nc2nc3ccc(Cl)cc3s2)cc1OC [Compound K697] | > 10 µM | >14.5 | 0.69 ± 0.19 µM | CK1ε inhibition (value in parentheses) ([1]; printed beside IC50 >10 µM): 26% |
